# Laboratory results: patent publication US8030478B2, “Method for nucleic acid replication and novel artificial base pairs” (priority 2005, dated 2011)
# Read-outs that look alike come from different tables or passages of the source.
# Target: T7 RNA polymerase (Escherichia phage T7, UniProt P00573)
# Details: for Composition of nucleotide incorporated as 5′ neighbor of A: Cp / Composition of nucleotide incorporated as 5′ neighbor of A: Up / Composition of nucleotide incorporated as 5′ neighbor of A: Ap / Composition of nucleotide incorporated as 5′ neighbor of A: Np (Pa′p) / Composition of nucleotide incorporated as 5′ neighbor of A: Gp: [α-32P]ATP; for Composition of nucleotide incorporated as 5′ neighbor of U: Np (Pa′p) / Composition of nucleotide incorporated as 5′ neighbor of U: Ap / Composition of nucleotide incorporated as 5′ neighbor of U: Gp / Composition of nucleotide incorporated as 5′ neighbor of U: Up / Composition of nucleotide incorporated as 5′ neighbor of U: Cp: [α-32P]UTP
# [1] = Entry 7, template temp35Ds-3, natural NTP 1 mM, Pa′ 1 mM, theoretical [0]
# [2] = Entry 7, template temp35Ds-3, natural NTP 1 mM, Pa′ 1 mM, theoretical [1]
# [3] = Entry 8, template temp35Ds-3, natural NTP 1 mM, Pa′ 3 mM, theoretical [0]
# [4] = Entry 8, template temp35Ds-3, natural NTP 1 mM, Pa′ 3 mM, theoretical [1]
# [5] = Entry 9, template temp35A-3, natural NTP 1 mM, Pa′ 1 mM, theoretical [0]
# [6] = Entry 9, template temp35A-3, natural NTP 1 mM, Pa′ 1 mM, theoretical [1]
# [7] = Entry 10, template temp35A-3, natural NTP 1 mM, Pa′ 3 mM, theoretical [0]
# [8] = Entry 10, template temp35A-3, natural NTP 1 mM, Pa′ 3 mM, theoretical [1]
# [9] = Entry 11, template temp35G-3, natural NTP 1 mM, Pa′ 1 mM, theoretical [0]
# [10] = Entry 11, template temp35G-3, natural NTP 1 mM, Pa′ 1 mM, theoretical [1]
# [11] = Entry 12, template temp35G-3, natural NTP 1 mM, Pa′ 3 mM, theoretical [0]
# [12] = Entry 12, template temp35G-3, natural NTP 1 mM, Pa′ 3 mM, theoretical [1]
# [13] = Entry 25, template DNA12, natural NTP 3 mM, Pa′ 3 mM, theoretical [6]
# [14] = Entry 27, template DNAcont4, natural NTP 3 mM, Pa′ 3 mM, theoretical [6]
# [15] = Entry 32, template DNA11, natural NTP 3 mM, Pa′ 3 mM, theoretical [4]
# [16] = Entry 33, template DNA12, natural NTP 3 mM, Pa′ 3 mM, theoretical [4]
# [17] = Entry 35, template DNAcont4, natural NTP 3 mM, Pa′ 3 mM, theoretical [4]
# Description: Transcription (20 μl) was accomplished in 40 mM Tris-HCl buffer (pH 8.0) containing 24 mM MgCl2, 2 mM spermidine, 5 mM DTT, 0.01% Triton X-100, 1-3 mM each natural NTP, 0-3 mM Pa′TP, 0-3 mM DsTP, 10 mM GMP, 2 μM template DNA (for 17-mer transcript synthesis) or 0.5 μM template DNA (for tRNA transcript synthesis), and 2.5 units/μl T7 RNA polymerase (TAKARA). […] For nucleotide composition analysis in transcripts (Non-patent Documents 17 and 33), the transcripts were internally labeled with 2 μCi [α-^32P]UTP or [α-^32P]ATP (Amersham). After the transcription, the products were digested with 0.75 units of RNase T2 at 37° C. for 2 hours in 10 μl of 15 mM sodium acetate buffer (pH 4.5). For 17-mer analysis, 0.05 A260 units of E. coli tRNA (Sigma) was added to the digestion reaction solution. The digestion products were analyzed by 2D-TLC (HPTLC plate, 100×100 mm, Merck). The developing solvents used for the first and second dimensions were isobutyric acid-ammonia-water (66:1:33 v/v/v) and isopropyl alcohol-HCl-water (70:15:15 v/v/v or 75:15:10 v/v/v for Pa′ transcripts), respectively. Spots of the labeled nucleotides on the TLC plate were analyzed with a bio-imaging analyzer.
# The internally ^32P-labeled transcripts were digested with Rnase T2, and the resulting labeled nucleoside 3′-monophosphates were analyzed by 2D thin-layer chromatography (2D-TLC).
# Sequence of T7 RNA polymerase (P00573 whole entry): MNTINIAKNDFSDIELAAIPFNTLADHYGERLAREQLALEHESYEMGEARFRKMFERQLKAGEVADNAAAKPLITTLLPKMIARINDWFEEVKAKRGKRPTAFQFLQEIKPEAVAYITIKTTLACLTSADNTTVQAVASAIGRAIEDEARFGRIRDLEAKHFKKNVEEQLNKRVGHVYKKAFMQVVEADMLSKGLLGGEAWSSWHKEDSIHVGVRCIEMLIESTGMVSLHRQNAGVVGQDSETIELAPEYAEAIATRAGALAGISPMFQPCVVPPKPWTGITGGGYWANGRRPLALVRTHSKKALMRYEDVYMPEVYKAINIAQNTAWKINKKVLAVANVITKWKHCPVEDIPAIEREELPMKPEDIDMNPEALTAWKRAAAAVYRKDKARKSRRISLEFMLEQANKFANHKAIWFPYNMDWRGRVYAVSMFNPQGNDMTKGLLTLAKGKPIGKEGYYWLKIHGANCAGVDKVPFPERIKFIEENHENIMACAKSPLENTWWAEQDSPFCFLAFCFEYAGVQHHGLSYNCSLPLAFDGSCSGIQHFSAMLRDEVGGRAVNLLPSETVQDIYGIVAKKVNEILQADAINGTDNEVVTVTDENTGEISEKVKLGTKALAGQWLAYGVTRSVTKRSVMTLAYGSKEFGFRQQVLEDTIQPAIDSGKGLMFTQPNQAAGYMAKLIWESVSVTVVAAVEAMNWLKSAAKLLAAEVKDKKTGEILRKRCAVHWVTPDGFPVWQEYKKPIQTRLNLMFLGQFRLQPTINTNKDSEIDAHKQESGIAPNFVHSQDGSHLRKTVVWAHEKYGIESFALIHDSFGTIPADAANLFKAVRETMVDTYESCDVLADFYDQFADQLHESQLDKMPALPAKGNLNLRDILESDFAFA
compound,measurement,setting,value
"CC#Cc1cc(C=O)n([C@@H]2O[C@H](COP(=O)(O)OP(=O)(O)OP(=O)(O)O)[C@@H](O)[C@H]2O)c1 [Pa′TP, 4-Propynyl-1-(β-D-ribofuranosyl)pyrrole-2-carbaldehyde 5′-triphosphate]",Composition of nucleotide incorporated as 5′ neighbor of A: Cp,[1],0.01 [0]
same,Composition of nucleotide incorporated as 5′ neighbor of A: Up,[1],0.02 [0]
same,Composition of nucleotide incorporated as 5′ neighbor of A: Ap,[2],1.03 [1]
same,Composition of nucleotide incorporated as 5′ neighbor of A: Np (Pa′p),[2],0.95 [1]
same,Composition of nucleotide incorporated as 5′ neighbor of A: Gp,"Entry 7, template temp35Ds-3, natural NTP 1 mM, Pa′ 1 mM, theoretical [2]",2.00 [2]
same,Composition of nucleotide incorporated as 5′ neighbor of A: Cp,[3],0.01 [0]
same,Composition of nucleotide incorporated as 5′ neighbor of A: Up,[3],0.02 [0]
same,Composition of nucleotide incorporated as 5′ neighbor of A: Ap,[4],1.01 [1]
same,Composition of nucleotide incorporated as 5′ neighbor of A: Np (Pa′p),[4],0.97 [1]
same,Composition of nucleotide incorporated as 5′ neighbor of A: Gp,"Entry 8, template temp35Ds-3, natural NTP 1 mM, Pa′ 3 mM, theoretical [2]",1.99 [2]
same,Composition of nucleotide incorporated as 5′ neighbor of A: Cp,[5],n.d. [0]
same,Composition of nucleotide incorporated as 5′ neighbor of A: Np (Pa′p),[5],n.d. [0]
same,Composition of nucleotide incorporated as 5′ neighbor of A: Ap,[6],0.99 [1]
same,Composition of nucleotide incorporated as 5′ neighbor of A: Up,[6],1.03 [1]
same,Composition of nucleotide incorporated as 5′ neighbor of A: Gp,"Entry 9, template temp35A-3, natural NTP 1 mM, Pa′ 1 mM, theoretical [2]",1.98 [2]
same,Composition of nucleotide incorporated as 5′ neighbor of A: Cp,[7],0.01 [0]
same,Composition of nucleotide incorporated as 5′ neighbor of A: Np (Pa′p),[7],n.d. [0]
same,Composition of nucleotide incorporated as 5′ neighbor of A: Ap,[8],0.99 [1]
same,Composition of nucleotide incorporated as 5′ neighbor of A: Up,[8],1.00 [1]
same,Composition of nucleotide incorporated as 5′ neighbor of A: Gp,"Entry 10, template temp35A-3, natural NTP 1 mM, Pa′ 3 mM, theoretical [2]",1.99 [2]
same,Composition of nucleotide incorporated as 5′ neighbor of A: Np (Pa′p),[9],n.d. [0]
same,Composition of nucleotide incorporated as 5′ neighbor of A: Up,[9],0.01 [0]
same,Composition of nucleotide incorporated as 5′ neighbor of A: Ap,[10],1.01 [1]
same,Composition of nucleotide incorporated as 5′ neighbor of A: Cp,[10],1.00 [1]
same,Composition of nucleotide incorporated as 5′ neighbor of A: Gp,"Entry 11, template temp35G-3, natural NTP 1 mM, Pa′ 1 mM, theoretical [2]",1.98 [2]
same,Composition of nucleotide incorporated as 5′ neighbor of A: Np (Pa′p),[11],n.d. [0]
same,Composition of nucleotide incorporated as 5′ neighbor of A: Up,[11],0.01 [0]
same,Composition of nucleotide incorporated as 5′ neighbor of A: Ap,[12],1.00 [1]
same,Composition of nucleotide incorporated as 5′ neighbor of A: Cp,[12],1.01 [1]
same,Composition of nucleotide incorporated as 5′ neighbor of A: Gp,"Entry 12, template temp35G-3, natural NTP 1 mM, Pa′ 3 mM, theoretical [2]",1.98 [2]
same,Composition of nucleotide incorporated as 5′ neighbor of A: Up,"Entry 24, template DNA11, natural NTP 3 mM, Pa′ 3 mM, theoretical [0]",0.09 [0]
same,Composition of nucleotide incorporated as 5′ neighbor of A: Np (Pa′p),"Entry 24, template DNA11, natural NTP 3 mM, Pa′ 3 mM, theoretical [1]",0.97 [1]
same,Composition of nucleotide incorporated as 5′ neighbor of A: Ap,"Entry 24, template DNA11, natural NTP 3 mM, Pa′ 3 mM, theoretical [5]",5.08 [5]
same,Composition of nucleotide incorporated as 5′ neighbor of A: Gp,"Entry 24, template DNA11, natural NTP 3 mM, Pa′ 3 mM, theoretical [6]",5.98 [6]
same,Composition of nucleotide incorporated as 5′ neighbor of A: Cp,"Entry 24, template DNA11, natural NTP 3 mM, Pa′ 3 mM, theoretical [7]",6.88 [7]
same,Composition of nucleotide incorporated as 5′ neighbor of A: Up,"Entry 25, template DNA12, natural NTP 3 mM, Pa′ 3 mM, theoretical [0]",0.07 [0]
same,Composition of nucleotide incorporated as 5′ neighbor of A: Np (Pa′p),"Entry 25, template DNA12, natural NTP 3 mM, Pa′ 3 mM, theoretical [1]",0.98 [1]
same,Composition of nucleotide incorporated as 5′ neighbor of A: Ap,[13],6.05 [6]
same,Composition of nucleotide incorporated as 5′ neighbor of A: Gp,[13],5.94 [6]
same,Composition of nucleotide incorporated as 5′ neighbor of A: Cp,"Entry 25, template DNA12, natural NTP 3 mM, Pa′ 3 mM, theoretical [7]",6.96 [7]
same,Composition of nucleotide incorporated as 5′ neighbor of A: Np (Pa′p),"Entry 27, template DNAcont4, natural NTP 3 mM, Pa′ 3 mM, theoretical [0]",n.d. [0]
same,Composition of nucleotide incorporated as 5′ neighbor of A: Up,"Entry 27, template DNAcont4, natural NTP 3 mM, Pa′ 3 mM, theoretical [1]",1.06 [1]
same,Composition of nucleotide incorporated as 5′ neighbor of A: Ap,[14],6.04 [6]
same,Composition of nucleotide incorporated as 5′ neighbor of A: Gp,[14],6.00 [6]
same,Composition of nucleotide incorporated as 5′ neighbor of A: Cp,"Entry 27, template DNAcont4, natural NTP 3 mM, Pa′ 3 mM, theoretical [7]",6.90 [7]
same,Composition of nucleotide incorporated as 5′ neighbor of U: Np (Pa′p),"Entry 32, template DNA11, natural NTP 3 mM, Pa′ 3 mM, theoretical [0]",0.01 [0]
same,Composition of nucleotide incorporated as 5′ neighbor of U: Ap,"Entry 32, template DNA11, natural NTP 3 mM, Pa′ 3 mM, theoretical [2]",2.01 [2]
same,Composition of nucleotide incorporated as 5′ neighbor of U: Gp,[15],3.98 [4]
same,Composition of nucleotide incorporated as 5′ neighbor of U: Up,[15],4.00 [4]
same,Composition of nucleotide incorporated as 5′ neighbor of U: Cp,"Entry 32, template DNA11, natural NTP 3 mM, Pa′ 3 mM, theoretical [5]",5.01 [5]
same,Composition of nucleotide incorporated as 5′ neighbor of U: Np (Pa′p),"Entry 33, template DNA12, natural NTP 3 mM, Pa′ 3 mM, theoretical [0]",0.01 [0]
same,Composition of nucleotide incorporated as 5′ neighbor of U: Ap,"Entry 33, template DNA12, natural NTP 3 mM, Pa′ 3 mM, theoretical [2]",2.00 [2]
same,Composition of nucleotide incorporated as 5′ neighbor of U: Cp,[16],4.05 [4]
same,Composition of nucleotide incorporated as 5′ neighbor of U: Gp,[16],3.94 [4]
same,Composition of nucleotide incorporated as 5′ neighbor of U: Up,[16],4.01 [4]
same,Composition of nucleotide incorporated as 5′ neighbor of U: Np (Pa′p),"Entry 35, template DNAcont4, natural NTP 3 mM, Pa′ 3 mM, theoretical [0]",n.d. [0]
same,Composition of nucleotide incorporated as 5′ neighbor of U: Ap,"Entry 35, template DNAcont4, natural NTP 3 mM, Pa′ 3 mM, theoretical [2]",2.02 [2]
same,Composition of nucleotide incorporated as 5′ neighbor of U: Gp,[17],4.00 [4]
same,Composition of nucleotide incorporated as 5′ neighbor of U: Up,[17],3.97 [4]
same,Composition of nucleotide incorporated as 5′ neighbor of U: Cp,"Entry 35, template DNAcont4, natural NTP 3 mM, Pa′ 3 mM, theoretical [5]",5.01 [5]
